Data taken from patent US20220241249A1, “PHARMACEUTICAL COMPOSITION AND KIT CONTAINING NOVEL PENAM DERIVATIVE OR SALT THEREOF AND ONE OR MORE COMPOUNDS SELECTED FROM beta-LACTAMASE INHIBITORY COMPOUND AND ANTIBACTERIAL COMPOUND OR SALTS THEREOF” (priority 2019, published 2022).
In brackets after ≈: the same amount, converted by molar mass.

Columns and labels:
Assay in all cases: Antibacterial activity evaluation test, MIC by broth microdilution (CLSI)
Format in all cases: cell-based
[1] = tested on: Pseudomonas aeruginosa strain ATCC27853; conditions: Pseudomonas aeruginosa, ATCC27853
Experimental: (§1) The minimum inhibitory concentration (MIC) was measured according to the Clinical and Laboratory Standards Institute (CLSI) standard method by using the following broth microdilution method.
(§2) As bacteria, a Pseudomonas aeruginosa strain ATCC27853, an AmpC-derepressed Pseudomonas aeruginosa mutant strain (S-3028), an IMP-1-containing Pseudomonas aeruginosa strain (S-2838), a VIM-2-containing Pseudomonas aeruginosa strain (S-3779), a GES-19 and GES-20-containing Pseudomonas aeruginosa strain (S-3759), a CTX-M-15-containing Escherichia coli strain (TK-1747), a KPC-2-containing Klebsiella pneumoniae strain (Y-995), an OXA-48-containing Klebsiella pneumoniae strain (Y-1062), and an NDM-1-containing Klebsiella pneumoniae strain (Y-1007) were used. The test bacterial cells that had been cultured overnight on a Mueller Hinton agar medium were scraped off, suspended at a density equivalent to 0.5 McFarland standard, and diluted 10-fold, thereby obtaining an inoculum. A cation-adjusted Mueller Hinton medium containing a test compound was inoculated with 0.005 mL of the inoculum, and the cells were cultured at 35° C. for 16 to 20 hours. The minimum drug concentration at which the growth of bacteria was not visually observed was defined as MIC (μg/mL).
(§3) An antibacterial activity evaluation test was performed in the same manner as in Test Example 1.

[2] = tested on: GES-19 and GES-20-containing Pseudomonas aeruginosa strain (S-3759); conditions: Pseudomonas aeruginosa
Experimental: as §1, §2, §3

[3] = tested on: CTX-M-15-containing Escherichia coli strain (TK-1747); conditions: Escherichia coli
Experimental: as §1, §2, §3

[4] = tested on: IMP-1-containing Pseudomonas aeruginosa strain (S-2838); conditions: Pseudomonas aeruginosa
Experimental: as §1, §2, §3

[5] = tested on: VIM-2-containing Pseudomonas aeruginosa strain (S-3779); conditions: Pseudomonas aeruginosa
Experimental: as §1, §2, §3

[6] = tested on: KPC-2-containing Klebsiella pneumoniae strain (Y-995); conditions: Klebsiella pneumoniae
Experimental: as §1, §2, §3

[7] = tested on: OXA-48-containing Klebsiella pneumoniae strain (Y-1062); conditions: Klebsiella pneumoniae
Experimental: as §1, §2, §3

[8] = tested on: NDM-1-containing Klebsiella pneumoniae strain (Y-1007); conditions: Klebsiella pneumoniae
Experimental: as §1, §2, §3

[9] = tested on: AmpC-derepressed Pseudomonas aeruginosa mutant strain (S-3028); conditions: Pseudomonas aeruginosa
Experimental: as §1, §2, §3

Row | SMILES | MIC [1] [µg/mL] | MIC [2] [µg/mL] | MIC [3] [µg/mL] | MIC [4] [µg/mL] | MIC [5] [µg/mL] | MIC [6] [µg/mL] | MIC [7] [µg/mL] | MIC [8] [µg/mL] | MIC [9] [µg/mL]
1 | CC(C)(O/N=C(\C(=O)N[C@@H]1C(=O)N2C[C@@](C(=O)O)(N3CCN(NC(=O)c4ccc(O)c(O)c4Cl)C3=O)S[C@H]12)c1csc(N)n1)C(=O)O [Example 2, (3R,5R,6R)-6-((Z)-2-(2-aminothiazol-4-yl)-2-(((2-carboxypropan-2-yl)oxy)imino)acetamido)-3-(3-(2-chloro-3,4-dihydroxybenzamido)-2-oxoimidazolidin-1-yl)-7-oxo-4-thia-1-azabicyclo[3.2.0]heptane-3-carboxylic acid] | 1 (≈ 1.4 µM) | 4 (≈ 5.61 µM) | 0.25 (≈ 0.351 µM) | 0.5 (≈ 0.701 µM) | 0.25 (≈ 0.351 µM) | 0.12 (≈ 0.168 µM) | 2 (≈ 2.8 µM) | < 0.06 | 1 (≈ 1.4 µM)
2 | Nc1nc(/C(=N/OC2(C(=O)O)CC2)C(=O)N[C@@H]2C(=O)N3C[C@@](C(=O)O)(N4CCN(NC(=O)c5ccc(O)c(O)c5Cl)C4=O)S[C@H]23)cs1 [Example 8, (3R,5R,6R)-6-((Z)-2-(2-aminothiazol-4-yl)-2-((1-carboxycyclopropoxy)imino)acetamido)-3-(3-(2-chloro-3,4-dihydroxybenzamido)-2-oxoimidazolidin-1-yl)-7-oxo-4-thia-1-azabicyclo[3.2.0]heptane-3-carboxylic acid] | 0.25 (≈ 0.352 µM) | 2 (≈ 2.81 µM) | 0.12 (≈ 0.169 µM) | 4 (≈ 5.63 µM) | 1 (≈ 1.41 µM) | 0.06 (≈ 0.0844 µM) | 16 (≈ 22.5 µM) | < 0.06 | 0.5 (≈ 0.703 µM)
3 | CC(C)(O/N=C(\C(=O)N[C@@H]1C(=O)N2C[C@@](C(=O)O)(N3CCN(NC(=O)C(=O)c4ccc(O)c(O)c4Cl)C3=O)S[C@H]12)c1csc(N)n1)C(=O)O [Example 20, (3R,5R,6R)-6-((Z)-2-(2-aminothiazol-4-yl)-2-(((2-carboxypropan-2-yl)oxy)imino)acetamido)-3-(3-(2-(2-chloro-3,4-dihydroxyphenyl)-2-oxoacetamido)-2-oxoimidazolidin-1-yl)-7-oxo-4-thia-1-azabicyclo[3.2.0]heptane-3-carboxylic acid] | 0.5 (≈ 0.675 µM) | 0.5 (≈ 0.675 µM) | < 0.06 | 0.12 (≈ 0.162 µM) | 0.25 (≈ 0.337 µM) | 0.12 (≈ 0.162 µM) | 0.5 (≈ 0.675 µM) | < 0.06 | 0.25 (≈ 0.337 µM)
4 | Nc1nc(/C(=N/OC2(C(=O)O)CC2)C(=O)N[C@@H]2C(=O)N3C[C@@](C(=O)O)(N4CCN(NC(=O)C(=O)c5ccc(O)c(O)c5Cl)C4=O)S[C@H]23)cs1 [Example 21, (3R,5R,6R)-6-((Z)-2-(2-aminothiazol-4-yl)-2-((1-carboxycyclopropoxy)imino)acetamido)-3-(3-(2-(2-chloro-3,4-dihydroxyphenyl)-2-oxoacetamido)-2-oxoimidazolidin-1-yl)-7-oxo-4-thia-1-azabicyclo[3.2.0]heptane-3-carboxylic acid] | 0.25 (≈ 0.338 µM) | 1 (≈ 1.35 µM) | 0.12 (≈ 0.162 µM) | 2 (≈ 2.71 µM) | 0.5 (≈ 0.676 µM) | < 0.06 | 2 (≈ 2.71 µM) | < 0.06 | 4 (≈ 5.41 µM)
5 | CC(C)(O/N=C(\C(=O)N[C@@H]1C(=O)N2C[C@@](C(=O)O)(N3CCN(NC(=O)C(=O)c4ccc(O)c(O)c4Cl)C3=O)S[C@H]12)c1nc(N)sc1Cl)C(=O)O [Example 22, (3R,5R,6R)-6-((Z)-2-(2-amino-5-chlorothiazol-4-yl)-2-(((2-carboxypropan-2-yl)oxy)imino)acetamido)-3-(3-(2-(2-chloro-3,4-dihydroxyphenyl)-2-oxoacetamido)-2-oxoimidazolidin-1-yl)-7-oxo-4-thia-1-azabicyclo[3.2.0]heptane-3-carboxylic acid] | 0.5 (≈ 0.645 µM) | 0.5 (≈ 0.645 µM) | < 0.06 | 0.5 (≈ 0.645 µM) | 0.25 (≈ 0.322 µM) | 0.06 (≈ 0.0774 µM) | 0.06 (≈ 0.0774 µM) | < 0.06 | 0.5 (≈ 0.645 µM)
6 | CC(C)(O/N=C(\C(=O)N[C@@H]1C(=O)N2C[C@@](C(=O)O)(n3ncn(NC(=O)C(=O)c4ccc(O)c(O)c4Cl)c3=O)S[C@H]12)c1csc(N)n1)C(=O)O [Example 26, (3R,5R,6R)-6-((Z)-2-(2-aminothiazol-4-yl)-2-(((2-carboxypropan-2-yl)oxy)imino)acetamido)-3-(4-(2-(2-chloro-3,4-dihydroxyphenyl)-2-oxoacetamido)-5-oxo-4,5-dihydro-1H-1,2,4-triazol-1-yl)-7-oxo-4-thia-1-azabicyclo[3.2.0]heptane-3-carboxylic acid] | 1 (≈ 1.35 µM) | 0.25 (≈ 0.338 µM) | 0.12 (≈ 0.162 µM) | 0.25 (≈ 0.338 µM) | 0.25 (≈ 0.338 µM) | 0.12 (≈ 0.162 µM) | 0.5 (≈ 0.676 µM) | < 0.06 | 0.12 (≈ 0.162 µM)
7 | CC(C)(O/N=C(\C(=O)N[C@@H]1C(=O)N2C[C@@](C(=O)O)(N3CCN(NC(=O)CCNC(=O)c4ccc(O)c(O)c4Cl)C3=O)S[C@H]12)c1csc(N)n1)C(=O)O [Example 28, (3R,5R,6R)-6-((Z)-2-(2-aminothiazol-4-yl)-2-(((2-carboxypropan-2-yl)oxy)imino)acetamido)-3-(3-(3-(2-chloro-3,4-dihydroxybenzamido)propanamido)-2-oxoimidazolidin-1-yl)-7-oxo-4-thia-1-azabicyclo[3.2.0]heptane-3-carboxylic acid] | 0.5 (≈ 0.638 µM) | 2 (≈ 2.55 µM) | 2 (≈ 2.55 µM) | 0.25 (≈ 0.319 µM) | 0.5 (≈ 0.638 µM) | 1 (≈ 1.28 µM) | 0.25 (≈ 0.319 µM) | < 0.06 | 0.25 (≈ 0.319 µM)
8 | CC(C)(O/N=C(\C(=O)N[C@@H]1C(=O)N2C[C@@](C(=O)O)(N3CCN(NC(=O)CNC(=O)C(=O)c4ccc(O)c(O)c4Cl)C3=O)S[C@H]12)c1csc(N)n1)C(=O)O [Example 29] | 0.25 (≈ 0.313 µM) | 0.5 (≈ 0.626 µM) | 2 (≈ 2.51 µM) | 1 (≈ 1.25 µM) | 0.5 (≈ 0.626 µM) | 0.5 (≈ 0.626 µM) | 1 (≈ 1.25 µM) | < 0.06 | < 0.06
9 | CC(C)(O/N=C(\C(=O)N[C@@H]1C(=O)N2C[C@@](C(=O)O)(N3CCN(NC(=O)CCNC(=O)C(=O)c4ccc(O)c(O)c4Cl)C3=O)S[C@H]12)c1csc(N)n1)C(=O)O [Example 30, (3R,5R,6R)-6-((Z)-2-(2-aminothiazol-4-yl)-2-(((2-carboxypropan-2-yl)oxy)imino)acetamido)-3-(3-(3-(2-(2-chloro-3,4-dihydroxyphenyl)-2-oxoacetamido)propanamido)-2-oxoimidazolidin-1-yl)-7-oxo-4-thia-1-azabicyclo[3.2.0]heptane-3-carboxylic acid] | 0.25 (≈ 0.308 µM) | 0.5 (≈ 0.616 µM) | 0.25 (≈ 0.308 µM) | 0.5 (≈ 0.616 µM) | 0.5 (≈ 0.616 µM) | 0.25 (≈ 0.308 µM) | 0.5 (≈ 0.616 µM) | < 0.06 | < 0.06
10 | C[C@H]1CN(/N=C/CNC(=O)c2ccc(O)c(O)c2Cl)C(=O)N1[C@]1(C(=O)O)CN2C(=O)C(NC(=O)/C(=N\OC(C)(C)C(=O)O)c3csc(N)n3)[C@H]2S1 (stereo partly drawn) [Example 45] | 1 (≈ 1.3 µM) | 2 (≈ 2.6 µM) | 0.12 (≈ 0.156 µM) | 2 (≈ 2.6 µM) | 1 (≈ 1.3 µM) | 0.25 (≈ 0.325 µM) | 1 (≈ 1.3 µM) | < 0.06 | 2 (≈ 2.6 µM)
11 | C[C@H]1CN(/N=C/CNC(=O)C(=O)c2ccc(O)c(O)c2Cl)C(=O)N1[C@]1(C(=O)O)CN2C(=O)C(NC(=O)/C(=N\OC(C)(C)C(=O)O)c3csc(N)n3)[C@H]2S1 (stereo partly drawn) [Example 47] | 0.5 (≈ 0.628 µM) | 1 (≈ 1.26 µM) | < 0.06 | 4 (≈ 5.02 µM) | 1 (≈ 1.26 µM) | 0.5 (≈ 0.628 µM) | 0.25 (≈ 0.314 µM) | < 0.06 | 0.12 (≈ 0.151 µM)
12 | CC(C)(O/N=C(\C(=O)N[C@@H]1C(=O)N2C[C@@](C(=O)O)(N3CCN(/N=C/C=N/NC(=O)NCCNC(=O)c4ccc(O)c(O)c4Cl)C3=O)S[C@H]12)c1csc(N)n1)C(=O)O [Example 53, (3R,5R,6R)-6-((Z)-2-(2-aminothiazol-4-yl)-2-(((2-carboxypropan-2-yl)oxy)imino)acetamido)-3-(3-(((1E,2E)-2-(2-((2-(2-chloro-3,4-dihydroxybenzamido)ethyl)carbamoyl)hydrazono)ethylidene)amino)-2-oxoimidazolidin-1-yl)-7-oxo-4-thia-1-azabicyclo[3.2.0]heptane-3-carboxylic acid] | 0.5 (≈ 0.586 µM) | 2 (≈ 2.34 µM) | 2 (≈ 2.34 µM) | 4 (≈ 4.69 µM) | 0.5 (≈ 0.586 µM) | 2 (≈ 2.34 µM) | 0.5 (≈ 0.586 µM) | 0.12 (≈ 0.141 µM) | 1 (≈ 1.17 µM)
